Laboratory results reported in patent US12344610B2, “APOL1 inhibitors and methods of use” (Maze Therapeutics, Inc., priority 2022, dated 2025).
pEC50: −log10 of the molar value.

How the values were obtained:
Format in all cases: cell-based
[1] = tested on: HEK293 cells overexpressing APOL1 G2; assay: APOL1 G2 HEK293 cell rescue assay (reversal of cell death caused by overexpression of APOL1); conditions: Homo sapiens, HEK293, HEK293 overexpressing APOL1 G2; geometric mean of at least 2 assay runs; † = single assay run
Outline: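 Each compound tested in duplicate wells on one plate per run, with values usually the geometric mean across at least two runs on different days, occasionally from one run only. Read-out: concentration giving half-maximal rescue of APOL1 G2 overexpression-induced death of HEK293 cells.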

[2] = tested on: Trypanosoma brucei Lister 427 VSG221 with APOL1 G0 recombinant protein; assay: APOL1 G0 trypanosome cell rescue assay (Example B5); conditions: Trypanosoma brucei, 20 h, read-out: APOL1 G0 Trypanosome Rescue EC50, Trypanosoma brucei Lister 427 VSG221 with APOL1 G0 recombinant protein, 20 hours, CellTiter-Glo; geometric mean of at least 2 assay runs; † = single assay run
Outline: (§1)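 Viability read by CellTiter-Glo luminescence after 20 h co-incubation (37° C, 5% CO2) of 250 trypanosomes/well in modified HMI-9 with test compound (duplicate 11-point, 2-fold dilutions, 0.4% DMSO) and APOL1 protein, […]. Protein: mature residues 28-398, E. coli inclusion-body refolded, tag cleaved, in DDM.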

[3] = tested on: Trypanosoma brucei Lister 427 VSG221 with APOL1 G1 recombinant protein; assay: APOL1 G1 trypanosome cell rescue assay (Example B5); conditions: Trypanosoma brucei, 20 h, read-out: APOL1 G1 Trypanosome Rescue EC50, Trypanosoma brucei Lister 427 VSG221 with APOL1 G1 recombinant protein, 20 hours, CellTiter-Glo; geometric mean of at least 2 assay runs; † = single assay run
Outline: as §1

[4] = tested on: Trypanosoma brucei Lister 427 VSG221 with APOL1 G2 recombinant protein; assay: APOL1 G2 trypanosome cell rescue assay (Example B5); conditions: Trypanosoma brucei, 20 h, read-out: APOL1 G2 Trypanosome Rescue EC50, Trypanosoma brucei Lister 427 VSG221 with APOL1 G2 recombinant protein, 20 hours, CellTiter-Glo; geometric mean of at least 2 assay runs; † = single assay run
Outline: as §1

SMILES	pEC50 [1]	pEC50 [2]	pEC50 [3]	pEC50 [4]
C[C@]1(O)C[C@H](N2C(=O)CCc3cc(OCCN4CCC5(CC4)C(=O)Nc4ccc(Cl)cc45)cnc32)C1 (single isomer, unassigned) [Compound 307, 5-chloro-1′-[2-({7-oxo-8-[(trans)-3-hydroxy-3-methylcyclobutyl]-5,6,7,8-tetrahydro-1,8-naphthyridin-3-yl}oxy)ethyl]-1,2-dihydrospiro[indole-3,4′-piperidin]-2-one]	7.69	7.18	7.10	7.57
CS(=O)(=O)c1ccc(OCCN2CCC3(CC2)C(=O)N(CCO)c2ccc(Cl)cc23)cc1 [Compound 18, 5-chloro-1-(2-hydroxyethyl)-1′-[2-(4-methanesulfonylphenoxy)ethyl]-1,2-dihydrospiro[indole-3,4′-piperidin]-2-one]	6.65	6.16	5.81	6.63
COCCN1C(=O)C2(CCN(CCOc3ccc(S(C)(=O)=O)cc3)CC2)c2cc(Cl)ccc21 [Compound 20, 5-chloro-1′-[2-(4-methanesulfonylphenoxy)ethyl]-1-(2-methoxyethyl)-1,2-dihydrospiro[indole-3,4′-piperidin]-2-one]	6.53	6.10	6.02	6.58
CN1C(=O)C2(CCN(CCOc3ccc(S(=O)(=O)CCCS(C)(=O)=O)cc3)CC2)c2cc(Cl)ccc21 [Compound 23, 5-chloro-1′-{2-[4-(3-methanesulfonylpropanesulfonyl)phenoxy]ethyl}-1-methyl-1,2-dihydrospiro[indole-3,4′-piperidin]-2-one]	6.87	6.49	6.21	6.95
CS(=O)(=O)c1ccc(OCCN2CCC3(CC2)C(=O)N(CCO)c2ccc(Br)cc23)cc1 [Compound 24, 5-bromo-1-(2-hydroxyethyl)-1′-[2-(4-methanesulfonylphenoxy)ethyl]-1,2-dihydrospiro[indole-3,4′-piperidin]-2-one]	6.62	6.29	6.12	6.79
COCCN1C(=O)C2(CCN(CCOc3ccc(S(C)(=O)=O)cc3)CC2)c2cc(C#N)ccc21 [Compound 25, 1′-[2-(4-methanesulfonylphenoxy)ethyl]-1-(2-methoxyethyl)-2-oxo-1,2-dihydrospiro[indole-3,4′-piperidine]-5-carbonitrile]	5.88	< 5.40	< 5.40	5.91
CS(=O)(=O)c1ccc(OCCN2CCCC3(CC2)C(=O)Nc2ccccc23)cc1 (stereo not shown) [Compound 26, 1-(2-(4-(methylsulfonyl)phenoxy)ethyl)spiro[azepane-4,3′-indolin]-2′-one]	5.75	< 5.40	< 5.40	< 5.40
CN1C(=O)CCc2cc(OCCN3CCC4(CC3)C(=O)Nc3ccc(Cl)cc34)ccc21 [Compound 27, 5-chloro-1′-[2-[(1-methyl-2-oxo-3,4-dihydroquinolin-6-yl)oxy]ethyl]spiro[indoline-3,4′-piperidine]-2-one]	7.21	6.70	6.57	7.18
O=C1CCc2cc(OCCN3CCC4(CC3)C(=O)Nc3ccc(Cl)cc34)cnc2N1CCO [Compound 192, 5-chloro-1′-(2-{[8-(2-hydroxyethyl)-7-oxo-5,6,7,8-tetrahydro-1,8-naphthyridin-3-yl]oxy}ethyl)-1,2-dihydrospiro[indole-3,4′-piperidin]-2-one]	7.39	6.97	6.85	7.31
CC(=O)N(C)CCS(=O)(=O)c1ccc(OCCN2CCC3(CC2)C(=O)Nc2ccc(Cl)cc23)cc1 [Compound 193, N-{2-[4-(2-{5-chloro-2-oxo-1,2-dihydrosiro[indole-3,4′-piperidin]-1′-yl}ethoxy)benzenesulfonyl]ethyl}-N-methylacetamide]	6.81	6.70	6.54	7.15
CS(=O)(=O)C1(c2ccc(OCCN3CCC4(CC3)C(=O)Nc3ccc(Cl)cc34)cc2)COC1 [Compound 195, 5-chloro-1′-{2-[4-(3-methanesulfonyloxetan-3-yl)phenoxy]ethyl}-1,2-dihydrospiro[indole-3,4′-piperidin]-2-one]	7.40	7.32	7.13	7.70
O=C1Nc2ccc(Cl)cc2C12CCN(CCOc1ccc3c(c1)CCS3(=O)=O)CC2 [Compound 196, 5-(2-{5-chloro-2-oxo-1,2-dihydrospiro[indole-3,4′-piperidin]-1′-yl}ethoxy)-2,3-dihydro-1λ^6-benzothiophene-1,1-dione]	7.04	6.80	6.73	7.22
CS(=O)(=O)c1ccc(OCCN2CCC3(CC2)C(=O)Nc2ccc(Cl)cc23)cc1C(F)F [Compound 197, 5-chloro-1′-{2-[3-(difluoromethyl)-4-methanesulfonylphenoxy]ethyl}-1,2-dihydrospiro[indole-3,4′-piperidin]-2-one]	7.49	7.52	6.71	7.97
O=C1Nc2ccc(Cl)cc2C12CCN(CCOc1ccc(S(=O)(=O)CCO)cc1)CC2 [Compound 198, 5-chloro-1′-{2-[4-(2-hydroxyethanesulfonyl)phenoxy)ethyl}-1,2-dihydrospiro[indole-3,4′-piperidin]-2-one]	7.20	6.97	6.85	7.38
CS(=O)(=O)Nc1ccc(OCCN2CCC3(CC2)C(=O)Nc2ccc(Cl)cc23)cc1 [Compound 214, N-[4-(2-{5-chloro-2-oxo-1,2-dihydrospiro[indole-3,4′-piperidin]-1′-yl}ethoxy)phenyl]methanesulfonamide]	7.10	6.60	6.37	7.05
O=C1Nc2ccc(Cl)cc2C12CCN(CCOc1ccc(S(=O)(=O)[C@H]3C[C@H](O)C3)cc1)CC2 [Compound 215, 5-chloro-1′-[2-(4-{[(trans)-3-hydroxycyclobutyl]sulfonyl}phenoxy)ethyl]-1,2-dihydrospiro[indole-3,4′-piperidin]-2-one]	7.10	7.15	7.01	7.65
CS(=O)(=O)c1ccc(OCCN2CCC3(CC2)C(=O)Nc2ccc(Cl)cc23)cc1C(O)CO (stereo not shown) [Compound 216, 5-chloro-1′-{2-[3-(1,2-dihydroxyethyl)-4-methanesulfonylphenoxy]ethyl}-1,2-dihydrospiro[indole-3,4′-piperidin]-2-one]	6.55	6.20	6.04	6.64
O=C1CCc2cc(OCCN3CCC4(CC3)C(=O)Nc3ccc(Cl)cc34)ccc2N1[C@H]1C[C@H](O)C1 [Compound 224, 5-chloro-1′-[2-({2-oxo-1-[(trans)-3-hydroxycyclobutyl]-1,2,3,4-tetrahydroquinolin-6-yl}oxy)ethyl]-1,2-dihydrospiro[indole-3,4′-piperidin]-2-one]	7.41	7.18	7.03	7.49
O=C1Nc2ccc(Cl)cc2C12CCN(CCOc1ccc(S(=O)(=O)C3(CO)CC3)cc1)CC2 [Compound 225, 5-chloro-1′-[2-(4-{[1-(hydroxymethyl)cyclopropyl]sulfonyl}phenoxy)ethyl]-1,2-dihydrospiro[indole-3,4′-piperidin]-2-one]	7.49	7.45	7.29	7.89
CNC(=O)C1(S(=O)(=O)c2ccc(OCCN3CCC4(CC3)C(=O)Nc3ccc(Cl)cc34)cc2)CC1 [Compound 226, 1-[4-(2-{5-chloro-2-oxo-1,2-dihydrospiro[indole-3,4′-piperidin]-1′-yl}ethoxy)benzenesulfonyl]-N-methylcyclopropane-1-carboxamide]	7.37	7.10	6.95	7.44
CN(C)C(=O)C1(S(=O)(=O)c2ccc(OCCN3CCC4(CC3)C(=O)Nc3ccc(Cl)cc34)cc2)CC1 [Compound 227, 1-[4-(2-{5-chloro-2-oxo-1,2-dihydrospiro[indole-3,4′-piperidin]-1′-yl}ethoxy)benzenesulfonyl]-N,N-dimethylcyclopropane-1-carboxamide]	7.33	6.85	6.61	7.21
O=C1Nc2ccc(Cl)cc2C12CCN(CCOc1ccc(S(=O)(=O)C3(C(=O)N4CCC4)CC3)cc1)CC2 [Compound 228, 1′-[2-(4-{[1-(azetidine-1-carbonyl)cyclopropyl]sulfonyl}phenoxy)ethyl]-5-chloro-1,2-dihydrospiro[indole-3,4′-piperidin]-2-one]	7.00	6.71	6.44	7.06
